Test results published in ChEMBL document CHEMBL1141048, “5-Substituted 4-anilinoquinazolines as potent, selective and orally active inhibitors of erbB2 receptor tyrosine kinase” (Bioorg Med Chem Lett, 2005).
pIC50: −log10 of the molar value. One block for each compound: values may come before it.

Columns and labels:
[1] = target: Epidermal growth factor receptor (Homo sapiens, UniProt P00533); experiment: Inhibitory concentration against EGFR kinase phosphorylation using synthetic peptide as a substrate
[2] = target: T1, Receptor tyrosine-protein kinase erbB-2 (Homo sapiens, UniProt P04626); experiment: Inhibitory concentration against erbB2 kinase phosphorylation using synthetic peptide as a substrate
[3] = test system: BT-474; experiment: Inhibitory concentration of compound against BT474C using standard MTT colorimetric endpoint; conditions: Homo sapiens
[4] = test system: KB; experiment: Inhibitory concentration of compound against KB Basal; conditions: Homo sapiens
[5] = test system: KB; experiment: Inhibitory concentration of compound against KB using a sandwich ELISA; conditions: Homo sapiens
[6] = target: T1, Receptor tyrosine-protein kinase erbB-2; experiment: Inhibitory concentration against erbB2 autophosphorylation in MCF-7 breast carcinoma cell line; format: functional, cell-based, MCF7
[7] = Plasma concentration of compound after 2 hours of administration of 100 mg/kg through peroral route; conditions: mouse, po
[8] = Plasma concentration of compound after 4 hours of administration of 100 mg/kg through peroral route; conditions: mouse, po
[9] = Plasma concentration of compound after 6 hours of administration of 100 mg/kg through peroral route; conditions: mouse, po
[10] = Plasma concentration of compound after 16 hours of administration of 100 mg/kg through peroral route; conditions: mouse, po
[11] = Plasma concentration of compound after 24 hours of administration of 100 mg/kg through peroral route; conditions: mouse, po
[12] = Clearance of compound in Mice after administration of 5 mg/kg through peroral route; format: ADME, organism-based; design: dose 5 mg/kg, route oral; conditions: mouse, in vivo, po
[13] = Clearance of compound in Mice after administration of 2 mg/kg through intra venous route; format: ADME, organism-based; design: dose 2 mg/kg; conditions: mouse, in vivo, iv
[14] = Steady state volume of Distribution of compound in Mice after administration of 5 mg/kg through peroral route; format: ADME, organism-based; design: dose 5 mg/kg, route oral; conditions: mouse, in vivo, po
[15] = Steady state volume of Distribution of compound in Mice after administration of 2 mg/kg through intra venous route; format: ADME, organism-based; design: dose 2 mg/kg; conditions: mouse, in vivo, iv, read-out: Vdss
[16] = Bioavailability of compound in Mice after administration of 5 mg/kg through peroral route; format: ADME, organism-based; conditions: mouse, in vivo, po, read-out: Bioavailabiility
[17] = Bioavailability of compound in Mice after administration of 2 mg/kg through intra venous route; format: ADME, organism-based; conditions: mouse, in vivo, intravenous, read-out: Bioavailabiility
[18] = AUC in Mice after administration of 5 mg/kg through peroral route; format: ADME, organism-based; design: dose 5 mg/kg, route oral; conditions: mouse, plasma, po
[19] = AUC in Mice after administration of 5 mg/kg through oral route; conditions: mouse, plasma

Epidermal growth factor receptor, sequence (P00533 whole entry): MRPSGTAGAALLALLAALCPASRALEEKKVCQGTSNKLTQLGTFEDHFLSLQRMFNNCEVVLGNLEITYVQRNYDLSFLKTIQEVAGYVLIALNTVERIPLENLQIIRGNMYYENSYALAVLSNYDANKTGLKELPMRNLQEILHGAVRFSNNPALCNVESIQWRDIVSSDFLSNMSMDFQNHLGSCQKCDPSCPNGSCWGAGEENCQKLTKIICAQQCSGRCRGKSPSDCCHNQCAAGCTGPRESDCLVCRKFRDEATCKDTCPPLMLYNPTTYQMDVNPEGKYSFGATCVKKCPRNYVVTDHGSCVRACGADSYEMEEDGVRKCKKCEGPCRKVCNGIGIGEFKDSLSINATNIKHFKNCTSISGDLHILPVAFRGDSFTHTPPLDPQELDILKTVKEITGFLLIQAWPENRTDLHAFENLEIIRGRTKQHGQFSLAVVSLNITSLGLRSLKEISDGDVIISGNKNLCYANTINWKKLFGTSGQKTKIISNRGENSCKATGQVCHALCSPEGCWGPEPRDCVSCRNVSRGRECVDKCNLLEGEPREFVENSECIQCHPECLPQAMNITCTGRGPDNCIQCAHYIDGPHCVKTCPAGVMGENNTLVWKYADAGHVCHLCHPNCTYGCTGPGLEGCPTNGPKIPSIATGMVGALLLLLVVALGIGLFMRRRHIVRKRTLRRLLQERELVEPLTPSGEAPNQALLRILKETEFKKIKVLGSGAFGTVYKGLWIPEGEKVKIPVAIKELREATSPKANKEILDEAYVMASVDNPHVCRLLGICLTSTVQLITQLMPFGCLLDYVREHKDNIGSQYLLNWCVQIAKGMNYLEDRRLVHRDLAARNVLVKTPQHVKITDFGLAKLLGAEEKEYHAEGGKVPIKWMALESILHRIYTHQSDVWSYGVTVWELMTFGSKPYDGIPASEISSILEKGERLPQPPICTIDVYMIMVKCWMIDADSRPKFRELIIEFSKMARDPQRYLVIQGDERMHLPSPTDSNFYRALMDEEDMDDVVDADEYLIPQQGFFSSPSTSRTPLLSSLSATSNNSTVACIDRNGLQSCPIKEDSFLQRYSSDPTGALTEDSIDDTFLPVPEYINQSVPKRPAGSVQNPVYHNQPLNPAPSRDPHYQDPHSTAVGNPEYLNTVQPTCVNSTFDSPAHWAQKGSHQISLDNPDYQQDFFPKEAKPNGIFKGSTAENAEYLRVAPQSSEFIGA
T1 sequence (P04626 whole entry): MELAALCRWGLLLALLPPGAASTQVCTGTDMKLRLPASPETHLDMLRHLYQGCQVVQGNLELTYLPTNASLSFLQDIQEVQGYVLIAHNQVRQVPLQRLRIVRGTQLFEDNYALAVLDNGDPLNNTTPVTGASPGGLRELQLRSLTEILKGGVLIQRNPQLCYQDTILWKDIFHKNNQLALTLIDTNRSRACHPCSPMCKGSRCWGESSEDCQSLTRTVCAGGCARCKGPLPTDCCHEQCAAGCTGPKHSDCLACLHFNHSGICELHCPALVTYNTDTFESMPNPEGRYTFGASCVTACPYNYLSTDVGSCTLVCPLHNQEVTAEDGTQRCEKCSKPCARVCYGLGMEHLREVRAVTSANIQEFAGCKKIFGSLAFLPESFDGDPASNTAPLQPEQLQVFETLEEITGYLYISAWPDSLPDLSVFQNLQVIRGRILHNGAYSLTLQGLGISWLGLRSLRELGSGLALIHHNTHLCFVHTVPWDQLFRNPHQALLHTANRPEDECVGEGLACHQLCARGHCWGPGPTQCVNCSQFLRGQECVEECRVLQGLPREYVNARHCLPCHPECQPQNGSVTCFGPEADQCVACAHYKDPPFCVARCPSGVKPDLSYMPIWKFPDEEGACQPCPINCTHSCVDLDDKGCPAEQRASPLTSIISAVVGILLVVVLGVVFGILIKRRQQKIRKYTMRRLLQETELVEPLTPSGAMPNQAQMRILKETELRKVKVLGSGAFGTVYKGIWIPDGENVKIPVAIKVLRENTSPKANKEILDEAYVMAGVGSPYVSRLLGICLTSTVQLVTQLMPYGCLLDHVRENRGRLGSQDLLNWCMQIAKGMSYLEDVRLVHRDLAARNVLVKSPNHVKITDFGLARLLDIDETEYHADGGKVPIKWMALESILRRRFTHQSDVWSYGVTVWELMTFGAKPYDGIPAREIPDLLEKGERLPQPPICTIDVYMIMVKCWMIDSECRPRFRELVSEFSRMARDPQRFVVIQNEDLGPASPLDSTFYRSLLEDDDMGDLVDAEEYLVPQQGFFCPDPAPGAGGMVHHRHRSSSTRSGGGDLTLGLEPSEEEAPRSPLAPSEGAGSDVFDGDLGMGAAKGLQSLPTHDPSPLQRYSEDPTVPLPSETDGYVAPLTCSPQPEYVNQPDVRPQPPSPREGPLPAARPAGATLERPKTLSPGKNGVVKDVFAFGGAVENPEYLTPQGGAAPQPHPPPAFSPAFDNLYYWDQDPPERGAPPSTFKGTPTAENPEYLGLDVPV

Compound: CN1CCC(Oc2cccc3ncnc(Nc4ccc(OCc5cccc(F)c5)c(Cl)c4)c23)CC1
pIC50 [3]: 8.57
pIC50 [1]: 8.30
pIC50 [2]: > 8.70
pIC50 [4]: 5.77
pIC50 [5]: 6.34
pIC50 [6]: 7.25

Compound: CN1CCC(Oc2cccc3ncnc(Nc4ccc(OCc5cscn5)c(Cl)c4)c23)CC1
pIC50 [1]: 6.16
pIC50 [2]: > 8.70

Compound: CN1CCC(Oc2cccc3ncnc(Nc4ccc(OCc5ccccn5)c(Cl)c4)c23)CC1
pIC50 [3]: 7.39
concentration at 2 h [7]: 9.2 µM
concentration at 4 h [8]: 7.2 µM
concentration at 6 h [9]: 6.9 µM
concentration at 16 h [10]: 2200 nM
concentration at 24 h [11]: 1100 nM
CL/F [12]: 15 mL/min/kg
clearance [13]: 15 mL/min/kg
Vdss [14]: 2.6 L/kg
Vd [15]: 2.6 L/kg
bioavailability [16]: 50%
bioavailability [17]: 50%
AUC [18]: 5.5 µM·h
pIC50 [1]: 6.85
pIC50 [2]: > 8.70
pIC50 [4]: 4.92
pIC50 [5]: 5.59
pIC50 [6]: 7.21
AUC [19]: 5.5 µM·h

Compound: COc1cc2ncnc(Nc3ccc(OCc4ccccn4)c(C)c3)c2cc1OC
pIC50 [1]: 7.23
pIC50 [2]: 7.25

Compound: COc1cccc2ncnc(Nc3ccc(OCc4ccccn4)c(Cl)c3)c12
pIC50 [1]: 6.36
pIC50 [2]: 7.62

Compound: CN1CCC(Oc2cccc3ncnc(Nc4ccc(OCc5cnccn5)c(Cl)c4)c23)CC1
pIC50 [1]: 6.16
pIC50 [2]: > 8.70

Continued by rising pIC50 [1], values first:

pIC50 [1]: 5.62
pIC50 [2]: 7.62
Compound: Clc1cc(Nc2ncnc3cccc(OC4CCOCC4)c23)ccc1OCc1ccccn1

pIC50 [1]: 5.68
pIC50 [2]: 7.15
Compound: CN1CCC(Oc2cccc3ncnc(Nc4ccc(OCc5ccccn5)cc4)c23)CC1

pIC50 [1]: 5.74
pIC50 [2]: 5.96
Compound: COc1ccc(Nc2ncnc3cccc(OC4CCN(C)CC4)c23)cc1Cl
